Assay results as given in paper PMC7997453 (Pharmaceuticals, 2021).
Where two headings read alike, the source gives them in different places.

What was measured:
[1] = cited from earlier work
[2] = ref supplement 4; cited from earlier work
[3] = cited from earlier work; remark: listed apart in the source
CYP3A5 [4] = conditions: cited from earlier work; for Km: unbound Michaelis constant
[5] = parameters: method as in supplement 6; conditions: ref supplement 6; cited from earlier work
[6] = parameters: method as in supplement 5; conditions: ref supplement 5; cited from earlier work
CYP3A4 [7] = system: CYP3A4; parameters: method as in earlier work; conditions: ref 3 (supplement ref 8), cited from earlier work; for Km: unbound Michaelis constant
[8] = parameters: method as in supplement 4; conditions: ref supplement 4; cited from earlier work
Caco-2 cell line = conditions: cited from earlier work; for Papp,caco-2,(pH 7.4:7.4): ref supplement 7
[9] = parameters: method as in PMID 12676880; conditions: cited from earlier work
[10] = octanol/water partition coefficient; format: physicochemical; conditions: In-house data
[11] = intrinsic clearance in human liver microsomes; format: in vitro ADME; conditions: In-house data, read-out: CLint,HLM
CYP3A4 [12] = molecular target: T1, CYP3A4 (Homo sapiens, UniProt P08684); experiment: Reversible inhibition (RI) assay on tacrolimus metabolism, CYP3A5*3/*3 HLM
T1 sequence (P08684 whole entry): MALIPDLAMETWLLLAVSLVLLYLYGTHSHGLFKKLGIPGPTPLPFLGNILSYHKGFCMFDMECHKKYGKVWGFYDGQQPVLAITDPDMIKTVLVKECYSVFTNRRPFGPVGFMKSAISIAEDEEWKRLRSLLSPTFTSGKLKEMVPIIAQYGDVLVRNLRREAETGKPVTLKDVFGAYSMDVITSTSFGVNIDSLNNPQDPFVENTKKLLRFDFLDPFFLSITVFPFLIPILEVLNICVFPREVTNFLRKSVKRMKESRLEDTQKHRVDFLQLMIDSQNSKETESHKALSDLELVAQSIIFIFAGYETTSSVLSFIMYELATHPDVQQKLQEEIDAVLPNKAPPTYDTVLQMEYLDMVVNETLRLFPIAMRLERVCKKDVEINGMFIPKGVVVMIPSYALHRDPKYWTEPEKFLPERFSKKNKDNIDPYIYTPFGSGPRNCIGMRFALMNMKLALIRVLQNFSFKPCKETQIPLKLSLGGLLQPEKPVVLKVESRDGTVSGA
Experimental: (§3) The reactions were started with the addition of nicotinamide adenine dinucleotide phosphate (NADPH, 1 mM) and stopped 10 min later upon adding a double volume of ice-cold methanol. […] Reactions were terminated with the same method as the CYP3A4 group. All incubations were carried out in triplicate. […] Dixon plots were used to analyze the inhibitory type of RI assay and Ki value.

CYP3A4 [13] = molecular target: T1, CYP3A4; experiment: Time-dependent inhibition (TDI) assay, testosterone-6β-hydroxylation, CYP3A5*3/*3 HLM; format: biochemical
Experimental: (§1) Testosterone-6β-hydroxylation was used to measure the activity of CYP3A4 and CYP3A5. […] With the corresponding double-reciprocal plot, the derived kinetic constants from the inactivation experiments were estimated.
(§2) Two-step incubation was performed to evaluate the TDI assay. […] After pre-incubation for 3 min at 37 °C in a shaking water bath, the enzymatic reaction was started upon adding NADPH (1 mM) with various pre-reaction time (0, 5, 10, 20, 30 min). For TDI on CYP3A5, NADPH (1 mM) was added to the incubation which contained CYP3A5*1/*3 HLM (0.5 mg/mL) and CYP3cide (1.2 μM) after being pre-warmed for 3 min. […] Next step, an aliquot (20 μL) of the primary pre-reaction mixture was transferred to 180 μL of the secondary incubation system which consisted of PBS (0.1 M), testosterone (200 μM) and NADPH (1 mM). The secondary reaction was incubated at 37 °C for 10 min and terminated by adding 400 μL ice-cold acetonitrile containing prednisolone as the internal standard (0.3150 μM for CYP3A5*3/*3 HLM incubation and 0.07875 μM for CYP3A5*1/*3 HLM incubation). […] The observed inactivation rate of the affected enzyme (kobs) was the negative slope of the linear regression. kinact and KI were calculated using Equation (1) by the double-reciprocal plot. I represents the concentration of the inhibitor. (1) kobs=kinact×I/[…]

CYP3A5 [14] = molecular target: T2, CYP3A5 (Homo sapiens, UniProt P20815); experiment: Reversible inhibition (RI) assay on tacrolimus metabolism, CYP3A5*1/*3 HLM with CYP3cide
T2 sequence (P20815 whole entry): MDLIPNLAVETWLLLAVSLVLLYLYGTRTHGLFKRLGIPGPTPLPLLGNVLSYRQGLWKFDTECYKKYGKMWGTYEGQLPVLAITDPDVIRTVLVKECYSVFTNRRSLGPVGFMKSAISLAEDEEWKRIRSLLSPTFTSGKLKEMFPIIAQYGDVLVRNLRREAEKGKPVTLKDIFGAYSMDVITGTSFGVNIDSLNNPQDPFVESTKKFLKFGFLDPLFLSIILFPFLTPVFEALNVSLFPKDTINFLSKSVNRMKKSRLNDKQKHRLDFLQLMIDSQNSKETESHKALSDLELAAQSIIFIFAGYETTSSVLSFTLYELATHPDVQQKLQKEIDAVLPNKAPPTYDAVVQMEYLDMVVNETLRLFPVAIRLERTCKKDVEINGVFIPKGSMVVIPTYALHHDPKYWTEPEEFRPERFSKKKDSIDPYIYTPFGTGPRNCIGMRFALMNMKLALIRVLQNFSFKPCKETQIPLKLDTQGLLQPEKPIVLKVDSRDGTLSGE
Experimental: as §3

CYP3A = system: CYP3A; parameters: method as in PMID 15342469; conditions: cited from earlier work
CYP3A5 [15] = molecular target: T2, CYP3A5; experiment: Time-dependent inhibition (TDI) assay, testosterone-6β-hydroxylation, CYP3A5*1/*3 HLM with CYP3cide; format: biochemical
Experimental: as §1, §2

[16] = single oral dose 1 mg, CYP3A5 expressers
[17] = single oral dose 1 mg, CYP3A5 non-expressers
[18] = single oral dose 2 mg, CYP3A5 expressers
[19] = single oral dose 2 mg, CYP3A5 non-expressers
[20] = single oral dose 5 mg, CYP3A5 expressers
[21] = single oral dose 5 mg, CYP3A5 non-expressers
[22] = 0.125 μM STA, 0.2 μM tacrolimus
[23] = 0.125 μM STA, 0.4 μM tacrolimus
[24] = 0.125 μM STA, 0.8 μM tacrolimus
[25] = 0.125 μM STA, 1.6 μM tacrolimus

Compound: C=CC[C@@H]1/C=C(\C)C[C@H](C)C[C@H](OC)[C@H]2O[C@@](O)(C(=O)C(=O)N3CCCC[C@H]3C(=O)O[C@H](/C(C)=C/[C@@H]3CC[C@@H](O)[C@H](OC)C3)[C@H](C)[C@@H](O)CC1=O)[C@H](C)C[C@@H]2OC [tacrolimus]
- AUC Obs (Observed) [1, 16]: 19.34 ng·h/mL
- Cmax Obs (Observed) [1, 16]: 3.88 ng/mL
- Tmax Obs (Observed) [1, 16]: 1.75 h
- AUC Obs (Observed) [1, 17]: 30.34 ng·h/mL
- Cmax Obs (Observed) [1, 17]: 5.52 ng/mL
- Tmax Obs (Observed) [1, 17]: 1.5 h
- AUC Obs (Observed) [1, 18]: 60.83 ng·h/mL
- Cmax Obs (Observed) [1, 18]: 14.09 ng/mL
- Tmax Obs (Observed) [1, 18]: 1.26 h
- AUC Obs (Observed) [1, 19]: 119.02 ng·h/mL
- Cmax Obs (Observed) [1, 19]: 24.28 ng/mL
- Tmax Obs (Observed) [1, 19]: 1.35 h
- AUC Obs (Observed) [1, 20]: 90.40 ng·h/mL
- Cmax Obs (Observed) [1, 20]: 20.8 ng/mL
- Tmax Obs (Observed) [1, 20]: 1.40 h
- AUC Obs (Observed) [1, 21]: 134.77 ng·h/mL
- Cmax Obs (Observed) [1, 21]: 27.90 ng/mL
- Tmax Obs (Observed) [1, 21]: 1.30 h
- LogPo:w [2]: 3.26
- fu plasma ([3]; ref supplement 4): 0.013
- CYP3A5 12-HT Vmax (CYP3A5 [4]; 12-hydroxy tacrolimus formation, ref 3 (supplement ref 8)): 1.4 pmol/min/pmol
- CYP3A5 13-DMT Vmax (CYP3A5 [4]; 13-O-desmethyl tacrolimus formation, ref 3 (supplement ref 8)): 17 pmol/min/pmol
- intrinsic clearance of tacrolimus by CYP3A5 versus CYP3A4 (CYP3A5 [4]; in vitro): more than two-fold faster
- Km (CYP3A5 [4]; ref 3 (supplement ref 8), read-out: CYP3A5 12-HT Km,u): 0.35 µM
- Km (CYP3A5 [4]; ref 3 (supplement ref 8), read-out: CYP3A5 13-DMT Km,u): 0.21 µM
- Intrinsic solubility [5]: 12 µg/mL
- fu gut [6]: 1
- CYP3A4 12-HT Vmax (CYP3A4 [7]; 12-hydroxy tacrolimus formation): 0.6 pmol/min/pmol
- CYP3A4 13-DMT Vmax (CYP3A4 [7]; 13-O-desmethyl tacrolimus formation): 8 pmol/min/pmol
- Km (CYP3A4 [7]; read-out: CYP3A4 12-HT Km,u): 0.29 µM
- Km (CYP3A4 [7]; read-out: CYP3A4 13-DMT Km,u): 0.21 µM
- B/P [8]: 35
- Papp,caco-2,(pH 7.4:7.4) (Caco-2 cell line): 13.1 ×10-6cm/s

Compound: Cc1ncc2n1-c1ccc(Cl)cc1C(c1ccccc1F)=NC2 [midazolam]
- Papp,caco-2,(pH 7.4:7.4) (Caco-2 cell line): 32.4 ×10-6cm/s

Compound: CC(=O)N1CCN(c2ccc(OCC3COC(Cn4ccnc4)(c4ccc(Cl)cc4Cl)O3)cc2)CC1 (centres unmarked) [ketoconazole]
- inhibition (tacrolimus level), CYP3A5 non-expressers versus expressers [9]: more significant inhibition

Compound: COc1cc2c(c(OC)c1OC)-c1c(cc3c(c1OC)OCO3)CC(C)C(C)(O)C2OC(=O)c1ccccc1 (centres unmarked) [STA, schisantherin A]
- logP [10]: 1.7
- microsomal CLint [11]: 24 µL/min/mg
- Ki (CYP3A4 [12]): 150 nM
- Dixon plot data point, Figure 2A, Mean (CYP3A4 [12]; [22]): 17.0000
- Dixon plot data point, Figure 2A, Mean (CYP3A4 [12]; [23]): 9.0441
- Dixon plot data point, Figure 2A, Mean (CYP3A4 [12]; [24]): 7.1353
- Dixon plot data point, Figure 2A, Mean (CYP3A4 [12]; [25]): 2.6233
- Dixon plot data point, Figure 2A, Mean (CYP3A4 [12]; 0.25 μM STA, 0.2 μM tacrolimus): 21.0000
- Dixon plot data point, Figure 2A, Mean (CYP3A4 [12]; 0.25 μM STA, 0.4 μM tacrolimus): 14.8861
- Dixon plot data point, Figure 2A, Mean (CYP3A4 [12]; 0.25 μM STA, 0.8 μM tacrolimus): 8.3071
- Dixon plot data point, Figure 2A, Mean (CYP3A4 [12]; 0.25 μM STA, 1.6 μM tacrolimus): 3.9072
- Dixon plot data point, Figure 2A, Mean (CYP3A4 [12]; 0.5 μM STA, 0.2 μM tacrolimus): 35.0000
- Dixon plot data point, Figure 2A, Mean (CYP3A4 [12]; 0.5 μM STA, 0.4 μM tacrolimus): 23.9051
- Dixon plot data point, Figure 2A, Mean (CYP3A4 [12]; 0.5 μM STA, 0.8 μM tacrolimus): 13.9244
- Dixon plot data point, Figure 2A, Mean (CYP3A4 [12]; 0.5 μM STA, 1.6 μM tacrolimus): 5.0160
- reversible inhibition on CYP3A4 (in words) (CYP3A4 [12]; CYP3A5*3/*3 HLM, substrate tacrolimus): competitive reversible inhibition
- TDI profile on CYP3A4 (in words) (CYP3A4 [13]): potent TDI
- log of percentage of control activity, Figure 3A, Mean (CYP3A4 [13]; 0.25 μM STA, pre-incubation 0 min): 4.6010
- log of percentage of control activity, Figure 3A, Mean (CYP3A4 [13]; 0.25 μM STA, pre-incubation 5 min): 4.4164
- log of percentage of control activity, Figure 3A, Mean (CYP3A4 [13]; 0.25 μM STA, pre-incubation 10 min): 4.3386
- log of percentage of control activity, Figure 3A, Mean (CYP3A4 [13]; 0.25 μM STA, pre-incubation 20 min): 4.2986
- log of percentage of control activity, Figure 3A, Mean (CYP3A4 [13]; 0.25 μM STA, pre-incubation 30 min): 4.2407
- log of percentage of control activity, Figure 3A, Mean (CYP3A4 [13]; 0.5 μM STA, pre-incubation 0 min): 4.6010
- log of percentage of control activity, Figure 3A, Mean (CYP3A4 [13]; 0.5 μM STA, pre-incubation 5 min): 4.2393
- log of percentage of control activity, Figure 3A, Mean (CYP3A4 [13]; 0.5 μM STA, pre-incubation 10 min): 4.0778
- log of percentage of control activity, Figure 3A, Mean (CYP3A4 [13]; 0.5 μM STA, pre-incubation 20 min): 3.9359
- log of percentage of control activity, Figure 3A, Mean (CYP3A4 [13]; 0.5 μM STA, pre-incubation 30 min): 3.9183
- log of percentage of control activity, Figure 3A, Mean (CYP3A4 [13]; 1 μM STA, pre-incubation 0 min): 4.5902
- log of percentage of control activity, Figure 3A, Mean (CYP3A4 [13]; 1 μM STA, pre-incubation 5 min): 4.1658
- log of percentage of control activity, Figure 3A, Mean (CYP3A4 [13]; 1 μM STA, pre-incubation 10 min): 4.0515
- log of percentage of control activity, Figure 3A, Mean (CYP3A4 [13]; 1 μM STA, pre-incubation 20 min): 3.8785
- log of percentage of control activity, Figure 3A, Mean (CYP3A4 [13]; 1 μM STA, pre-incubation 30 min): 3.5554
- log of percentage of control activity, Figure 3A, Mean (CYP3A4 [13]; 2 μM STA, pre-incubation 0 min): 4.6052
- log of percentage of control activity, Figure 3A, Mean (CYP3A4 [13]; 2 μM STA, pre-incubation 5 min): 4.0322
- log of percentage of control activity, Figure 3A, Mean (CYP3A4 [13]; 2 μM STA, pre-incubation 10 min): 3.5615
- log of percentage of control activity, Figure 3A, Mean (CYP3A4 [13]; 2 μM STA, pre-incubation 20 min): 3.1694
- log of percentage of control activity, Figure 3A, Mean (CYP3A4 [13]; 2 μM STA, pre-incubation 30 min): 3.0051
- kinact/KI (CYP3A4 [13]; CYP3A4): 748.3 M⁻¹ s⁻¹
- KI (CYP3A4 [13]; CYP3A4, testosterone-6β-hydroxylation): 2450 nM
- kinact (CYP3A4 [13]; human, CYP3A5*3/*3 human liver microsomes, probe testosterone (200 μM), CYP3A4, testosterone-6β-hydroxylation): 0.00183 s⁻¹
- Ki (CYP3A5 [14]): 110 nM
- Dixon plot data point, Figure 2B, Mean (CYP3A5 [14]; [22]): 15.0000
- Dixon plot data point, Figure 2B, Mean (CYP3A5 [14]; [23]): 14.0109
- Dixon plot data point, Figure 2B, Mean (CYP3A5 [14]; [24]): 7.5773
- Dixon plot data point, Figure 2B, Mean (CYP3A5 [14]; [25]): 5.6992
- Dixon plot data point, Figure 2B, Mean (CYP3A5 [14]; 0.25 μM STA, 0.2 μM tacrolimus): 23.2012
- Dixon plot data point, Figure 2B, Mean (CYP3A5 [14]; 0.25 μM STA, 0.4 μM tacrolimus): 15.6487
- Dixon plot data point, Figure 2B, Mean (CYP3A5 [14]; 0.25 μM STA, 0.8 μM tacrolimus): 12.0521
- Dixon plot data point, Figure 2B, Mean (CYP3A5 [14]; 0.25 μM STA, 1.6 μM tacrolimus): 5.8700
- Dixon plot data point, Figure 2B, Mean (CYP3A5 [14]; 0.5 μM STA, 0.2 μM tacrolimus): 30.8928
- Dixon plot data point, Figure 2B, Mean (CYP3A5 [14]; 0.5 μM STA, 0.4 μM tacrolimus): 26.2841
- Dixon plot data point, Figure 2B, Mean (CYP3A5 [14]; 0.5 μM STA, 0.8 μM tacrolimus): 14.9975
- Dixon plot data point, Figure 2B, Mean (CYP3A5 [14]; 0.5 μM STA, 1.6 μM tacrolimus): 8.0120
- reversible inhibition on CYP3A5 (in words) (CYP3A5 [14]; CYP3A5*1/*3 HLM with CYP3cide, substrate tacrolimus): competitive reversible inhibition
- fu plasma ([3]; ref supplement 2): 0.083
- KI (inactivation) (CYP3A; erythromycin N-demethylation, read-out: inhibitor concentration causing half-maximal inactivation (KI)): 399 nM
- kinact/KI (CYP3A; erythromycin probe substrate): 3843 M⁻¹ s⁻¹
- Ki (CYP3A; reversible inhibition of CYP3A, the substrate is erythromycin, read-out: inhibitory constant (Ki)): 49 nM
- TDI profile on CYP3A5 (in words) (CYP3A5 [15]): not observed
- Papp,caco-2 (Caco-2 cell line; ref supplement 3): 34.41 ×10⁻⁶ cm/s
